The results in this text go back to patent publication US5437980A, “Phenanthridium dye staining of nucleic acids in living cells” (Molecular Probes, Inc., priority 1993, dated 1995).

“Also recorded” adds a separate entry of the source.

One data set deals with mushroom spores. Nature of the data set: Staining of mushroom spores by fluorescence microscopy (Example 4). Type of data set: cell-based, agaric. The following applies: 10-20 μM dye, 30 min, room temperature. How it is done: Spores are rinsed from the gills on the underside of the cap of an agaric using a stream of distilled water. The spores are concentrated by centrifugation for 30 sec at 10,000 rpm in a microcentrifuge then a minimal volume of a 10-20 μM solution of the 5-DAPP/LIVE dye in distilled water is added. The suspension is incubated with the dye for 30 min at room temperature then a 15 μL aliquot of the suspension is mounted on between a coverglass and the slide for viewing in the presence of the dye. The cellular fluorescence is observed on a Zeiss Axioplan fluorescence microscope using fluorescein (long:pass emission) or rhodamine filter sets.

The subject of another data set is sea urchin sperm. Nature of the data set: Staining of sea urchin sperm (Example 8). Format: cell-based. The following applies: 2 μM dye, 5 min, room temperature. How it is done: Sperm cells are released from sea urchins by injection of KCl and the cells are concentrated by low speed centrifugation and suspended in 1 mL artificial seawater (ASW) at room temperature. Sufficient 10 mM dye stock solution is added to the sperm suspension to obtain a final dye concentration of 2 μM. The sperm are labeled by incubation in the dye solution for 5 min at room temperature. The sperm are washed by centrifugation at 2000 rpm for 1 min and then resuspended in 1 mL ASW before mounting and observation.

Data set [1] deals with 3T3 mouse fibroblast cells. As to the kind of experiment: Staining of nuclei in adherent cultured mammalian cells (Example 9). Type of data set: cell-based. The following applies: 2 μM dye. How it is done: 3T3 mouse fibroblast cells are grown on coverslips in calf serum-supplemented DMEM medium. The coverslips of cells are washed in HBSS+. 5-DAPP/LIVE dye solutions are prepared to a final concentration of 2 μM in DMEM without serum. One group of 3T3 cells is treated with 300 μM chloroquine (group 1). These cells and control cells (group 2) not treated with chloroquine are incubated at 37° C. for 30 min. The two groups of cells are transferred to DMEM plus 5-DAPP/LIVE. The cells are incubated in the dye-containing medium for 30 min at room temperature and are subsequently washed in HBSS+and viewed by epifluorescence microscopy using a long-pass fluorescein or a rhodamine filter set.

In data set [2] the test system is rainbow trout gonad cells (RTG-2). As to the kind of experiment: Staining followed by fixation (Example 13). Type of data set: cell-based. The following applies: 1 μM, 30 min, room temperature. How it is done:
Adherent rainbow trout gonad cells (RTG-2) are grown at 20° C. until about 25% confluent. The cells are labeled by incubation in HBSS- containing 1 μM hexidium at room temperature for 30 min. The cells are subsequently washed free of hexidium with HBSS-, followed by phosphate-buffered saline, pH 7.4 (PBS), and fixed in 2% formaldehyde in PBS for 15 min at room temperature. Cell nuclei and cytoplasmic fluorescence are observed in the fluorescence microscope using fluorescein long-pass or rhodamine filter sets.

The next data set concerns Bacillus cereus. Nature of the data set: Relative rate and extent of dye uptake into living Bacillus cereus (Example 2, FIG. 1). Format: cell-based. The following applies: 2 μM dye, 23° C. How it is done: FIG. 1. Relative Uptake of Dyes into Living Cells. Uptake of ethidium, butidium, hexidium and octidium by Bacillus cereus as described in Example 2.
Bacillus cereus is grown in nutrient broth to log phase, washed by centrifugation, and resuspended in water to a density of 5×10^6 cfu/mL (as determined in Example 1). One centimeter pathlength acrylic cuvettes containing 3 mL of cell suspension are placed in a fluorescence spectrophotometer equipped with a temperature regulated cuvette holder and magnetic stirrer. The suspensions are brought to 23° C. prior to dye addition. To a cuvette of 3 mL bacteria suspension is added 3 μL of 2 mM dye stock solutions in DMSO to give a final dye concentration of 2 μM to produce the maximum attainable fluorescence/cell at the 600 nm emission wavelength (determined as in Example 1). The peak fluorescence excitation and emission wavelengths are determined by scanning the spectrum of the dye in suspensions of Bacillus cereus incubated for 30 min with the dye. Fluorescence intensity of the suspensions is measured using 488 nm excitation and 600 nm emission wavelengths. Sampling of fluorescence is carried out at 5 or 10 Hz until the fluorescence signal appears to stabilize.

The test system of data set [3] is 3T3 mouse fibroblast cells. As to the kind of experiment: Pulse-chase staining of lysosomal compartments in cultured mammalian cells (Example 10). Format: cell-based. Here is the method:
3T3 mouse fibroblast cells are grown on coverslips in calf serum-supplemented DMEM medium. The coverslips of cells are washed using the HBSS+, then hexidium solutions are prepared to final concentrations of 2 μM and 0.2 μM in HBSS+. The cells are incubated in the dye-containing medium for 2 min at room temperature then they are washed in HBSS +and viewed by epifluorescence microscopy using a long-pass fluorescein or a rhodamine filter set.

A further data set has as its system living cells. As to the kind of experiment: Entry into / staining of living cells, general. Format: cell-based. The following applies: general summary.
The test system of another data set is Saccharomyces. Nature of the data set: Staining of yeast (Example 5). Format: cell-based. The following applies: 10 μM dye, 30 min, 37° C. How it is done:
Yeast cells are washed by centrifugation and then resuspended in a solution of 2% glucose and 10 mM Na-HEPES, pH 7.4 to a cell density of between 5×10^5 and 2×10^6 cells/mL optical density at 410 nm (previously calibrated with YPD agar plate colony counts). Sufficient 10 mM stock solution of the 5-DAPP/LIVE dye in DMSO is added to effect a final concentration of 10 μM of the dye in the medium. The suspension is incubated for 30 min at 37° C. then 15 μL are placed between a coverglass and the microscope slide. The cellular fluorescence is observed using fluorescein (long-pass emission) or rhodamine filter sets.

The test system of data set [4] is peripheral blood lymphocytes. Nature of the data set: Staining of peripheral blood lymphocytes, fluorometer (Example 11). Format: cell-based, goat. The following applies: on the scale of seconds. How it is done:
Peripheral blood lymphocytes (PBL) are isolated from fresh heparinized goat blood and resuspended in buffer consisting of 135 mM NaCl, 5 mM KCl, 20 mM HEPES, 1 mM CaCl2, 1 mM MgCl2, pH 7.4 (HBSS+). The cells are resuspended to 10^6 mL (as determined by direct microscopic count using a standard hemocytometer) in a final volume of 3 mL in the above buffer in a quartz cuvette. 5-DAPP/LIVE dye stocks are prepared to final concentrations of 2 mM in DMSO. 3 μL of the octidium dye stock solution is injected into the cuvette to a final concentration of 2 μM. In a fluorometer, the sample is excited at 520 nm and fluorescence emission is monitored at 600 nm over the time required for the fluorescence signal to become stable. Hexidium, butidium and ethidium bromide are injected into separate samples of PBL to determine the relative rates of uptake for these stains. The volume of dye solution added to the cuvette is corrected by a factor relating the absorbance of the dye to the absorbance of a 2 mM octidium solution.

Turning to `CCCCCC[n+]1c(-c2ccccc2)c2cc(N)ccc2c2ccc(N)cc21` [hexidium], the “staining of spores (in words)” value in the data set with mushroom spores is “stains all spores brightly; also recorded: stained most effectively”. Further, in the data set on sea urchin sperm, the “effect on motility of the sperm or ability to fertilize a sea urchin egg” value is given as “no apparent effect” and the “staining of sperm nuclei” value was “sperm nuclei stain brightly”. In addition, in data set [1] (group 1, 300 μM chloroquine), the “staining distribution, chloroquine-treated cells” value is “stained throughout, but with a greater relative intensity of staining in the nucleus”. The “staining distribution, control cells” value in data set [1] (group 2, no chloroquine) was “relatively equal staining in the nucleus and cytoplasm”. Further, the “color of nucleus and cytoplasm” value in [1] (one half hour, long-pass fluorescein filter (red with rhodamine excitation)) was “orange”. For the same compound, in data set [2], the “difference between live loaded cells and cells fixed with 2% formaldehyde” value is on record as “essentially no difference”. In addition, the extent of loading entry in the data set with Bacillus cereus was “optimal”. In addition, the “rate of dye loading” value in the data set with Bacillus cereus (488 nm excitation, 600 nm emission) was “increases with carbon chain length”. Further, in data set [3] (0.2 μM, 2 min, room temperature), the “labeling after brief pulse-chase loading” value is “labeling of punctate structures in the cell cytoplasm; also recorded: green”. Moreover, the “labeling after brief loading” value in data set [3] (2 μM, 2 min, room temperature) is reported as “additional organellar staining, which is apparently mitochondrial”. In addition, the “effect of chloroquine preincubation on staining” value in [3] (300 μM chloroquine) is “reduces the amount of cytoplasmic staining”. The staining of nuclei result in data set [3] (under both conditions (0.2 and 2 μM)) was “stained slightly, but only in the nucleolar regions”. In addition, in the data set with living cells, the membrane permeability entry is “marked enhancement of membrane permeability in all systems”. The “entry into / staining of live cells” value in the data set with living cells (several types of cells) is “enters many types of live cells quickly and is bright”. Also, the “staining distribution and intensity” value with Saccharomyces was “less of a hazy cytoplasmic stain and more distinct nuclei”. In data set [4], the “distribution of dye into nucleus of lymphocytes” value is recorded as “virtually instantaneous”.
